From paper PMC8482815, “Targeting Host Glycolysis as a Strategy for Antimalarial Development” (Frontiers in Cellular and Infection Microbiology, 2021)
“And” between values parts separate entries of the source, which are not always exact repeats. Equal values may be shown once.

Tested on: human erythrocytes
Assay: Untargeted metabolomics and 13C-glucose tracing of enolase inhibitor treated erythrocytes
Assay type: cell-based
Conditions: 0.5h
Procedure: Freshly collected erythrocytes were washed, resuspended to 10% hematocrit in buffer [25mM HEPES (pH 7.4), 120mM NaCl, 5.4mM KCl, 1.8mM CaCl2, and 1mM NaH2PO4], incubated for 1 hour at 37°C, then centrifuged at 2000xg for 5 minutes at 4°C, resuspended in fresh wash buffer to 30-40% hematocrit, and split into 210µL aliquots of packed erythrocytes. […] All samples were incubated at 37°C shaking at 500 RPM. Triplicate samples of supernatants and packed erythrocytes were collected at 0, 0.5, 1, and 6-hour intervals and snap-frozen in liquid N2.
RBC and media samples were extracted at 1:10 and 1:20 dilutions, respectively, in 5:3:2 MeOH : MeCN:H2O v/v/v, and supernatants analyzed on a Thermo Vanquish UHPLC coupled to a Thermo Q Exactive mass spectrometer, as extensively described ([Nemkov et al., 2015]; [Nemkov et al., 2017]). The extraction buffer was supplemented with 40uM 3-^13C lactate to allow absolute quantification of lactate isotopologues, including lactate generated via glycolysis ([1,2,3-^13C3] enriched) vs. the pentose phosphate pathway ([2,3-^13C2] enriched), as described ([Reisz et al., 2016]). Metabolite assignments, peak area integration and isotopologues distributions were determined using Maven (Princeton University) ([Nemkov et al., 2015]; [Nemkov et al., 2017]).
Data were auto-scaled and normalized to zero-hour time points. Metabolites were removed from the dataset if greater than 50% of the samples contained missing values or the relative standard deviation among replicates exceeded 25%. Additionally, data was filtered using the interquartile range to reduce near-constant values from the experiment by 5%.
A principal component analysis of preprocessed data was plotted with the 95% confidence interval minimum volume enclosing ellipsoid for each respective group (MetaboAnalyst, cluster, plotly). A two-way repeated measures analysis of variance (ANOVA) was performed with multiple comparisons corrected for using a false discovery rate p-value cutoff of 0.05. Metabolite-Pathway analysis was performed using the R package of MetaboAnalyst, as previously described ([Xia and Wishart, 2010]). Metabolite-Protein nodal analysis was performed using omicsnet.ca and as previously described ([Zhou and Xia, 2018]).

[1] = treated erythrocytes, one value per replicate sample, polarity +
[2] = treated erythrocytes, one value per replicate sample, polarity -
[3] = treated erythrocytes, replicate samples

## CC(C)(C)C(=O)OCOP(=O)(OCOC(=O)C(C)(C)C)C1CC(O)N(O)C1=O (stereo not shown) [POMSF]
Replicate samples
  AMP level (metabolomics signal): 2.22E+06 and 1.69E+06 and 1.24E+06
  ATP level (metabolomics signal): 6.37E+03 and 8.43E+03 and 5.73E+03
  Adenine level (metabolomics signal): 1.92E+05 and 1.77E+05 and 1.67E+05
  Cytosine level (metabolomics signal): 5.62E+05 and 5.81E+05 and 5.75E+05
  L-alanine level (metabolomics signal): 8.49E+06 and 9.99E+06 and 1.01E+07
  L-arginine level (metabolomics signal): 8.18E+06 and 5.94E+06 and 8.91E+06
  L-asparagine level (metabolomics signal): 3.70E+06 and 4.01E+06 and 4.49E+06
  L-aspartate level (metabolomics signal): 3.38E+07 and 3.70E+07 and 4.18E+07
  L-cysteine level (metabolomics signal): 5.61E+05 and 2.55E+05 and 1.58E+05
  L-glutamate level (metabolomics signal): 3.26E+07 and 3.43E+07 and 3.68E+07
  L-glutamine level (metabolomics signal): 3.77E+07 and 4.04E+07 and 5.11E+07
  L-histidine level (metabolomics signal): 1.39E+06 and 1.38E+06 and 1.35E+06
  L-isoleucine level (metabolomics signal): 1.79E+07 and 1.67E+07 and 1.69E+07
  L-leucine level (metabolomics signal): 1.70E+08 and 1.83E+08 and 2.03E+08
  L-lysine level (metabolomics signal): 2.70E+06 and 2.39E+06 and 2.59E+06
  L-methionine level (metabolomics signal): 1.52E+07 and 1.66E+07 and 1.85E+07
  L-phenylalanine level (metabolomics signal): 8.08E+06 and 8.86E+06 and 1.12E+07
  L-proline level (metabolomics signal): 4.22E+07 and 3.45E+07 and 3.96E+07
  L-serine level (metabolomics signal): 2.93E+06 and 2.66E+06 and 3.79E+06
  L-threonine level (metabolomics signal): 5.71E+06 and 5.05E+06 and 5.98E+06
  L-tryptophan level (metabolomics signal): 5.93E+06 and 3.78E+06 and 4.71E+06
  L-tyrosine level (metabolomics signal): 1.94E+07 and 2.09E+07 and 2.16E+07
  L-valine level (metabolomics signal): 1.34E+08 and 1.45E+08 and 1.42E+08
  dCMP level (metabolomics signal): 1.87E+04 and 1.84E+04 and 1.76E+04
  dTMP level (metabolomics signal): 1.29E+06 and 8.42E+05 and 1.18E+06
  glycine level (metabolomics signal): 1.56E+06 and 1.61E+06 and 1.75E+06
[1]
  N-Acyl-D-aspartate (C06380) metabolite signal: 2.47E+05 and 3.01E+05 and 2.50E+05
  Poly-gamma-D-glutamate (C05723) metabolite signal: 2.49E+07 and 2.77E+07 and 3.43E+07
[2]
  D-Ribitol 5-phosphate (C01068) metabolite signal: 1.89E+04 and 2.70E+04 and 1.78E+04
  D-glucono-1,5-lactone (C00198) metabolite signal: 5.20E+05 and 6.45E+05 and 5.70E+05
  L-Noradrenaline (C00547) metabolite signal: 5.30E+04 and 6.26E+04 and 5.84E+04
  Oxalosuccinate (C05379) metabolite signal: 1.60E+05 and 1.51E+05 and 1.30E+05
  Pyridoxamine (C00534) metabolite signal: 4.35E+04 and 3.15E+04 and 3.96E+04
  Thioredoxin disulfide (C00343) metabolite signal: 4.45E+04 and 2.53E+04 and 3.52E+04
[3]
  1-4-beta-D-Xylan (metabolite signal): 2.42E+05 and 2.55E+05 and 2.51E+05
  2-Hydroxyglutarate/Citramalate (C02630) metabolite signal: 8.78E+04 and 9.72E+04 and 1.18E+05
  5-6-Dihydrothymine (C00906) metabolite signal: 3.10E+05 and 2.80E+05 and 2.87E+05
  5-10-Methenyltetrahydrofolate (metabolite signal): 3.54E+05 and 4.17E+05 and 3.24E+05
  5-Hydroxyisourate (C11821) metabolite signal: 5.17E+06 and 5.16E+06 and 5.68E+06
  5-L-Glutamyl-taurine (metabolite signal): 1.45E+05 and 1.54E+05 and 1.36E+05
  5-Oxoproline (metabolite signal): 8.54E+05 and 9.65E+05 and 9.67E+05
  (S)(+)-Allantoin (C02350) metabolite signal: 4.35E+04 and 3.58E+04 and 0.00E+00
  Allantoate (C00499) metabolite signal: 2.71E+05 and 2.04E+05 and 2.56E+05
  Ascorbate (metabolite signal): 9.30E+04 and 6.85E+04 and 1.08E+05
  CMP-N-acetylneuraminate (metabolite signal): 1.38E+04 and 2.26E+04 and 3.45E+04
  Carnosine (metabolite signal): 2.64E+05 and 2.93E+05 and 2.91E+05
  Citrate (C00158) metabolite signal: 2.63E+04 and 3.23E+04 and 3.56E+04
  Creatine (metabolite signal): 2.99E+08 and 3.28E+08 and 3.02E+08
  Creatinine (metabolite signal): 3.46E+06 and 3.25E+06 and 2.95E+06
  Cys-Gly (metabolite signal): 2.55E+06 and 2.28E+06 and 2.13E+06
  D-Glucosamine (metabolite signal): 1.73E+05 and 2.02E+05 and 1.88E+05
  D-Glucose (C00031) metabolite signal: 6.07E+06 and 5.64E+06 and 6.25E+06
  D-Ribose (C00121) metabolite signal: 1.75E+05 and 2.10E+05 and 1.84E+05
  Dehydroascorbate (metabolite signal): 1.78E+04 and 9.28E+03 and 1.77E+04
  Dihydrofolate (metabolite signal): 1.24E+06 and 6.72E+05 and 1.27E+06
  Dimethylglycine (metabolite signal): 1.14E+06 and 1.17E+06 and 1.06E+06
  Diphosphate (C00013) metabolite signal: 3.26E+03 and 1.34E+03 and 1.52E+03
  Fumarate (C00122) metabolite signal: 1.08E+05 and 1.33E+05 and 1.27E+05
  Glutathione (C00051) metabolite signal: 1.64E+08 and 1.52E+08 and 1.45E+08
  Glutathione disulfide (metabolite signal): 1.36E+05 and 2.52E+05 and 3.91E+05
  Hypoxanthine (C00262) metabolite signal: 6.53E+04 and 4.36E+04 and 3.66E+04
  IMP (C00130) metabolite signal: 9.13E+04 and 0.00E+00 and 4.11E+04
  Inosine (C00294) metabolite signal: 9.07E+04 and 1.09E+05 and 1.15E+05
  L-Citrulline (metabolite signal): 3.18E+06 and 3.52E+06 and 3.48E+06
  L-Homoserine (metabolite signal): 2.14E+05 and 2.01E+05 and 2.23E+05
  Lactate (C01432) metabolite signal: 9.04E+06 and 8.73E+06 and 8.57E+06
  Malate (C00149) metabolite signal: 1.84E+05 and 2.15E+05 and 2.30E+05
  Mannitol (C00392) metabolite signal: 1.48E+05 and 1.43E+05 and 1.44E+05
  N-Acetylneuraminate (metabolite signal): 2.84E+04 and 2.76E+04 and 2.63E+04
  N-Glycoloyl-neuraminate (metabolite signal): 1.80E+05 and 1.43E+05 and 1.72E+05
  NAD+ (C00003) metabolite signal: 7.76E+04 and 1.99E+05 and 4.14E+05
  Nicotinamide (C00153) metabolite signal: 3.69E+07 and 3.94E+07 and 3.72E+07
  Ornithine (metabolite signal): 2.34E+06 (2×) and 2.32E+06
  Oxaloacetate (C00036) metabolite signal: 4.10E+04 and 3.82E+04 and 3.53E+04
  Phosphoserine (metabolite signal): 5.43E+04 and 2.60E+05 and 7.13E+04
  Putrescine (metabolite signal): 8.30E+04 and 7.12E+04 and 6.80E+04
  Pyridoxal (C00250) metabolite signal: 7.95E+04 and 8.76E+04 and 8.42E+04
  Pyruvate (C00022) metabolite signal: 6.67E+05 and 7.32E+05 and 6.75E+05
  S-Glutathionyl-L-cysteine (metabolite signal): 6.44E+04 and 8.58E+04 and 2.21E+05
  Sedoheptulose 1-phosphate (C06222) metabolite signal: 1.56E+04 and 1.68E+04 and 1.80E+04
  Spermidine (metabolite signal): 9.65E+06 and 9.19E+06 and 9.18E+06
  Spermine (metabolite signal): 9.74E+06 and 8.90E+06 and 1.00E+07
  Succinate (C00042) metabolite signal: 9.57E+04 and 9.51E+04 and 9.45E+04
  Thymidine (C00214) metabolite signal: 1.34E+04 and 1.17E+04 and 1.87E+04
  UDP (C00015) metabolite signal: 2.09E+05 and 1.18E+05 and 1.38E+05
  UDP-N-acetyl-D-glucosamine (metabolite signal): 1.55E+04 and 2.01E+04 and 2.26E+04
  UDP-glucose (C00029) metabolite signal: 3.09E+04 and 3.55E+04 and 4.15E+04
  Urate (C00366) metabolite signal: 3.51E+04 and 2.72E+04 and 2.68E+04
  Xanthine (C00385) metabolite signal: 3.66E+05 and 3.57E+05 and 3.29E+05
  alpha-D-Glucosamine 1-phosphate (metabolite signal): 2.09E+06 and 2.40E+06 and 2.18E+06
  alpha-D-Ribose 1-phosphate (C00620) metabolite signal: 1.08E+05 and 8.84E+04 and 1.07E+05
  gamma-Glutamyl-gamma-aminobutyrate (metabolite signal): 9.93E+04 and 1.32E+05 and 1.00E+05
  gamma-L-Glutamyl-D-alanine (metabolite signal): 3.99E+04 and 3.09E+04 and 3.31E+04
  gamma-L-Glutamyl-L-cysteine (metabolite signal): 1.39E+04 and 2.39E+04 and 2.36E+04
